Laboratory results from article PMC10887108, “Novel Brain-Penetrant, Small-Molecule Tubulin Destabilizers for the Treatment of Glioblastoma” (Biomedicines, 2024).

Tests used:
[1] = target: T1, Porcine tubulin (colchicine binding site) (Sus scrofa, UniProt P02554); assay: Colchicine competitive binding assay (fluorescence); details: compound 50 µM, colchicine 10 μM, tubulin 20 μM
T1 construct: purchased Cytoskeleton, Inc. T240; host or cells: brain tissue (purified)

porcine tubulin = target: T2, porcine tubulin (Sus scrofa, UniProt P02554); assay: Tubulin polymerization assay (fluorescent reporter); type: biochemical; details: porcine tubulin 20 μM; for reduction in tubulin polymerization (AUC): compound 5 μM, relative to DMSO
T2 construct: purchased Cytoskeleton, Inc. BK011P
Experimental: Tubulin polymerization was evaluated by monitoring the incorporation of a fluorescent reporter into MTs during polymerization. The tubulin polymerization assay kit (Cytoskeleton, Inc. BK011P; Denver, CO, USA) was used according to the manufacturer’s instructions. Briefly, the tubulin reaction mix was kept on ice until immediately prior to use.
(A,B) Representative tubulin polymerization plots and data quantification. […] (C) Immunofluorescence staining of β-tubulin in U87 glioblastoma cells. […] Images were captured using an Operetta confocal microscope at 40× magnification. Scale bar, 10 μm. […] Data was collected with a BD FACS Canto II Flow Cytometer and analyzed using the BD FACSDiva software. (E) The percentage of cells in G1, S, and G2/M phases from the histograms in (D). Data are plotted as mean ± SD from at least three independent experiments. Analysis between groups in (B) was performed using a one-way ANOVA with Tukey’s multiple comparisons test.

U87 glioblastoma cells [2] = assay: alamarBlue cell viability assay, U87; type: cell-based; details: Homo sapiens, 72 h, U87, 72 h, average absolute IC50
Experimental: (§1) Cells (100 µL/well) were seeded in 96-well tissue culture plates (Greiner Bio-One 650090; Kremsmünster, Austria). The plating density (cells/well) for each cell line was as follows: LN-18 (3000), U87 (4000), and HMC3 (5000). After overnight incubation, compounds were added to the cells (50 µL at 3× concentration, final 0.1% DMSO), and plates were incubated for 72 h. Cell viability was assessed by the addition of 25 µL of alamarBlue for a final concentration of 100 µM final concentration (Resazurin redox reagent, Sigma-Aldrich R7017; St. Louis, MO, USA). After a 4 h incubation, fluorescence was read on a CLARIOstar Plus plate reader (BMG Labtech, Ortenberg, Germany) at EX 570/EM 590 nm.

[3] = system: LN-18 glioblastoma cells (TMZ-resistant); assay: alamarBlue cell viability assay, LN-18; type: cell-based; details: Homo sapiens, LN-18, 72 h, average absolute IC50
Experimental: as §1

[4] = system: U87 cells (microtubule network); assay: Immunofluorescent staining of cellular β-tubulin; type: cell-based, human; details: U87, compounds at their IC50 concentrations, 24 h
Experimental: U87 cells (4000/well) were plated in black 96-well plates (Perkin Elmer 6055302; Waltham, MA, USA) and grown overnight. Cells were treated with compounds for 24 h, fixed with 4% paraformaldehyde for 20 min, and permeabilized with FoxP3 permeabilization buffer (eBioscience/Thermo Fisher Scientific 00-5523-00; Waltham, MA, USA) for 10 min at RT. Cells were incubated with an anti-TUBB3 (Tuj1) antibody (1:1000; […] Technologies 60052; Vancouver, BC, Canada) labeled with Hoechst 33342 dye (1:2000; Thermo Fisher Scientific H3570; Waltham, MA, USA). Images (40×) were taken with an automated high-content imaging microscope (Operetta, Perkin Elmer; Waltham, MA, USA).

U87 glioblastoma cells [5] = assay: Cell cycle analysis (propidium iodide flow cytometry); type: cell-based, human; details: 48 h
Experimental: […] Cells were washed in ice-cold PBS, resuspended in 1 mL of ice-cold 70% ethanol, and fixed overnight at −20 °C. Cells were centrifuged and resuspended in PBS containing RNAse A at a final concentration of 0.5 mg/mL (MilliporeSigma 10109142001; Burlington, MA, USA) and propidium iodide at a final concentration of 0.04 mg/mL (Sigma-Aldrich P4170, St. Louis, MO, USA) for 1 h at 37 °C. Nuclear staining was analyzed using a BD FACSCanto II flow cytometer (BD Biosciences; Franklin Lakes, NJ, USA) to determine cell cycle distribution. Cell cycle analysis was performed using the BD FACSDiva software v8.0.

| Compound | reduction of colchicine–tubulin fluorescence relative to control [1] [%] | increase in tubulin polymerization (AUC) (porcine tubulin; paclitaxel 3 μM) [%] | IC50 (U87 glioblastoma cells [2]) [nM] | IC50 [3] [nM] | reduction in tubulin polymerization (AUC) (porcine tubulin) | effect on tubulin organization / MT network morphology [4] | cells arrested at G2/M (U87 glioblastoma cells [5]; U87, 5 µM) [%] | cells arrested at G2/M (U87 glioblastoma cells [5]; U87, 20 nM) [%] |
| --- | --- | --- | --- | --- | --- | --- | --- | --- |
| COC(=O)Nc1nc2ccc(C(=O)c3cccs3)cc2[nH]1 [NOC, Nocodazole, reference compound] | 79 | – | – | – | – | – | – | – |
| CC(=O)O[C@H]1C(=O)[C@@]2(C)[C@H]([C@H](OC(=O)c3ccccc3)[C@]3(O)C[C@H](OC(=O)[C@H](O)[C@@H](NC(=O)c4ccccc4)c4ccccc4)C(C)=C1C3(C)C)[C@]1(OC(C)=O)CO[C@@H]1C[C@@H]2O [PX, paclitaxel, reference compound] | – | 91 | – | – | – | – | – | – |
| CO[C@H]1CC[C@@H](C(=O)NC(=O)Nc2ccc(Oc3ncc(Cl)cn3)c(C)c2)CC1 [RGN3062] | – | – | 588 | 73 | 36% | substantial tubulin disruption | 73 | – |
| CO[C@H]1CC[C@H](C(=O)NC(=O)Nc2ccc(Oc3ncc(Cl)cn3)c(C)c2)CC1 [RGN3096] | – | – | > 10000 | 2430 | no difference relative to the DMSO control | no visible effect on tubulin and cell structure | 11 | – |
| COc1cc2c(c(OC)c1OC)-c1ccc(OC)c(=O)cc1[C@@H](NC(C)=O)CC2 [colchicine, reference compound] | – | – | – | – | – | varying levels of disruption of tubulin organization | – | 64 |
